Reference: US10858347B2, “Multicyclic compounds and uses thereof” (Karyopharm Therapeutics Inc., priority 2015, dated 2020)
Like-named read-outs stand apart in the source and are kept apart here.

Legend:
[1] = tested on: Z138 cells; assay: MTT cell proliferation assay, Z138 cells; format: cell-based, human; conditions: Z138 cells (mature B-cell acute lymphoblastic leukemia cell line), approximately 64-72 hours incubation
Procedure: (§1) The MTT cell proliferation assay was used to study the cytotoxic properties of the compounds. The assay was performed according to the method described by Roche Molecular Biochemicals, with minor modifications. The assay is based on the cleavage of the tetrazolium salt, MTT, in the presence of an electron-coupling reagent. The water-insoluble formazan salt produced must be solubilized in an additional step. Cells grown in a 96-well tissue culture plate were incubated with the MTT solution for approximately 4 hours. After this incubation period, a water-insoluble formazan dye formed. After solubilization, the formazan dye was quantitated using a scanning multi-well spectrophotometer (ELISA reader). […] The cells were seeded at 5,000-10,000 cells in each well of 96-well plate in 100 μL of fresh culture medium and were allowed to attach overnight. The stock solutions of the compounds were diluted in 100 μL cell culture medium to obtain eight concentrations of each test compound, ranging from 1 nM to 30 μM. […] All optical densities were measured at 490 nm using a Vmax Kinetic Microplate Reader (Molecular Devices). In most cases, the assay was performed in duplicate and the results were presented as a mean percent inhibition to the negative control±SE. The following formula was used to calculate the percent of inhibition: Inhibition (%)=(1−(ODo/OD))×100.
(§2) The compounds were tested against MS751, Z138 and 3T3 cells. The MS751 cell line is derived from a metastasis to lymph node of human cervix from a patient diagnosed with squameous cell carcinoma of the cervix. The Z138 cell line is a mature B-cell acute lymphoblastic leukemia cell line derived from a patient with chronic lumphocytic leukemia. 3T3 cells are standard fibroblast cells; they were originally isolated from Swiss mouse embryo tissue.

[2] = tested on: 3T3 cells; assay: MTT cell proliferation assay, 3T3 cells; format: cell-based; conditions: 3T3 cells (standard fibroblast cells, Swiss mouse embryo), approximately 64-72 hours incubation
Procedure: as §1, §2

In the case of “1-((6-aminopyridin- 3-yl)methyl)-3-(2-((4- (4,4-difluoropiperidine- 1-carbonyl)-4″- fluoro-[1,1′:3′,1″- terphenyl]-4′- yl)oxy)ethyl)urea [Compound 124]”, the IC50 ([1]; read-out: Z-138 MTT (IC50; μM)) is reported as less than 0.1 µM and the IC50 [2] is reported as greater than 10 µM.

For `O=C(NCc1cccnc1)NCc1cc2cc(-c3ccc(C(=O)N4CCC(F)(F)CC4)cc3)cc(-c3ccc(F)cc3)c2o1` [Compound 104, 1-((5-(4-(4,4-difluoropiperidine-1-carbonyl)phenyl)-7-(4-fluorophenyl)benzofuran-2-yl)methyl)-3-(pyridin-3-ylmethyl)urea], the IC50 ([1]; Homo sapiens, Z-138) was less than 0.1 µM and the IC50 ([2]; NIH3T3) was 0.1 to 5 µM.

`O=C(NCc1cc2cc(-c3ccc(C(=O)N4CCC(F)(F)CC4)cc3)cc(C(F)(F)F)c2o1)N1Cc2ccncc2C1` [Compound 105, N-((5-(4-(4,4-difluoropiperidine-1-carbonyl)phenyl)-7-(trifluoromethyl)benzofuran-2-yl)methyl)-1H-pyrrolo[3,4-c]pyridine-2(3H)-carboxamide] was tested, and the IC50 ([1]; Homo sapiens, Z-138) was 0.1 to 5 µM and the IC50 ([2]; NIH3T3) was greater than 10 µM.

Molecule `O=C(NCc1cc2cc(-c3ccc(C(=O)N4CC(F)(F)C4)cc3)cc(C(F)(F)F)c2o1)N1Cc2ccncc2C1` [Compound 106, N-((5-(4-(3,3-difluoroazetidine-1-carbonyl)phenyl)-7-(trifluoromethyl)benzofuran-2-yl)methyl)-1H-pyrrolo[3,4-c]pyridine-2(3H)-carboxamide] has an IC50 ([1]; Homo sapiens, Z-138) greater than 10 µM and an IC50 ([2]; NIH3T3) greater than 10 µM.

`CN(Cc1cc2cc(-c3ccc(C(=O)N4CCC(F)(F)CC4)cc3)cc(-c3ccc(F)cc3)c2o1)C(=O)N1Cc2ccncc2C1` [Compound 109, N-((5-(4-(4,4-difluoropiperidine-1-carbonyl)phenyl)-7-(4-fluorophenyl)benzofuran-2-yl)methyl)-N-methyl-1H-pyrrolo[3,4-c]pyridine-2(3H)-carboxamide] showed an IC50 ([1]; Homo sapiens, Z-138) of less than 0.1 µM and an IC50 ([2]; NIH3T3) of 0.1 to 5 µM.

For `O=C(NCc1cc2cc(-c3ccc(C(=O)N4CCC(F)(F)CC4)cn3)cc(-c3ccc(F)cc3)c2o1)N1Cc2ccncc2C1` [Compound 110, N-((5-(5-(4,4-difluoropiperidine-1-carbonyl)pyridin-2-yl)-7-(4-fluorophenyl)benzofuran-2-yl)methyl)-1H-pyrrolo[3,4-c]pyridine-2(3H)-carboxamide], the IC50 ([1]; Homo sapiens, Z-138) was less than 0.1 µM and the IC50 ([2]; NIH3T3) was less than 0.1 µM.

Work on `O=C(NCc1cc2cc(-c3ccc(C(=O)N4CCC(F)(F)CC4)cc3)cc(-c3ccc(F)cc3)c2s1)N1Cc2ccncc2C1` [Compound 111, N-((5-(4-(4,4-difluoropiperidine-1-carbonyl)phenyl)-7-(4-fluorophenyl)benzo[b]thiophen-2-yl)methyl)-1H-pyrrolo[3,4-c]pyridine-2(3H)-carboxamide] yielded an IC50 ([1]; Homo sapiens, Z-138) of less than 0.1 µM and an IC50 ([2]; NIH3T3) greater than 10 µM.

`Nc1ccc(CNC(=O)NCc2cc3cc(-c4ccc(C(=O)N5CCC(F)(F)CC5)cc4)cc(-c4ccc(F)cc4F)c3o2)cn1` [Compound 112, 1-((6-aminopyridin-3-yl)methyl)-3-((7-(2,4-difluorophenyl)-5-(4-(4,4-difluoropiperidine-1-carbonyl)phenyl)benzofuran-2-yl)methyl)urea] showed an IC50 ([1]; Homo sapiens, Z-138) of less than 0.1 µM and an IC50 ([2]; NIH3T3) of 0.1 to 5 µM.

Molecule `Nc1ccc(CNC(=O)NCc2cc3cc(-c4ccc(C(=O)N5CCC(F)(F)CC5)cc4)cc(C(F)(F)F)c3o2)cn1` [Compound 113, 1-((6-aminopyridin-3-yl)methyl)-3-((5-(4-(4,4-difluoropiperidine-1-carbonyl)phenyl)-7-(trifluoromethyl)benzofuran-2-yl)methyl)urea] has an IC50 ([1]; Homo sapiens, Z-138) greater than 10 µM and an IC50 ([2]; NIH3T3) greater than 10 µM.

`Nc1ccc(CNC(=O)NCc2cc3cc(-c4ccc(C(=O)N5CCC(F)(F)CC5)cc4)cc(-c4ccc(F)cc4)c3s2)cn1` [Compound 114, 1-((6-aminopyridin-3-yl)methyl)-3-((5-(4-(4,4-difluoropiperidine-1-carbonyl)phenyl)-7-(4-fluorophenyl)benzo[b]thiophen-2-yl)methyl)urea] was tested, and the IC50 ([1]; Homo sapiens, Z-138) was 5 to 10 µM and the IC50 ([2]; NIH3T3) was greater than 10 µM.
